Measured values: US9512140B2, “(Thieno[2,3-b][1,5]benzoxazepin-4-yl)piperazin-1-yl compounds as dual activity H1 inverse agonists/5-HT2A antagonists” (priority 2011, dated 2016)
Where a name gives a salt, the structure may show the parent alone.

Test system: Rats
Test: Sleep and behavioral monitoring in rats (EEG, EMG, motion)
Type: in vivo
Protocol: The compound of the present invention is tested in rats for its ability to increase the amount of sleep or decrease sleep interruption or both without undesired effects such as inhibition of REM sleep, waking motor impairment, and/or rebound insomnia. Test animals are continuously monitored by electro-encephalograms (EEG), electromyograms (EMG), and motion to measure cumulative nonREM sleep, cumulative total sleep, average sleep bout duration, longest sleep bout duration, rebound insomnia. REM sleep inhibition and locomotor activity intensity during wakefulness. Methods for such studies are known in the art (see for example methods described in Edgar D M, Seidel W F. Modafinil induces wakefulness without intensifying motor activity or subsequent rebound hypersomnolence in the rat. J Pharmacology & Experimental Therapeutics 1997; 283: 757-769; van Gelder R N, Edgar D M, Dement W C. Real-time automated sleep scoring: validation of a microcomputer-based system for mice. Sleep 1991, 14: 48-55; and Gross B A, Walsh C M, Turakhia A A, Booth V, Mashour G A, Poe G R. Open-source logic-based automated sleep scoring software using electrophysiological recordings in rats. J Neurosci Methods. 2009; 184(1):10-8.) Studies are conducted as follows:
Adult, male Wistar rats (approximately 270-300 g at time of surgery) are surgically fitted for chronic recording of EEG, EMG, and motion as follows: Rats are surgically prepared with a cranial implant consisting of four stainless steel screws for EEG recording (two frontal [3.9 mm anterior from bregma, and ±2.0 mm mediolaterally] and two occipital [6.4 mm posterior from bregma, ±5.5 mm mediolaterally]), and with two Teflon-coated stainless steel wires for EMG recording (positioned under the nuchal trapezoid muscles). All leads are soldered to a miniature connector (Microtech, Boothwyn, Pa.) prior to surgery. The implant assembly is affixed to the skull by the combination of the stainless steel EEG recording screws, cyanoacrylate applied between the implant connector and skull, and dental acrylic. Locomotor activity is monitored via a miniature transmitter (Minimitter PDT4000G, Philips Respironics, Bend, Oreg.) surgically placed into the abdomen. At least 3 weeks are allowed for recovery.
Each rat is housed individually within a microisolator cage modified with an inserted polycarbonate filter-top riser to allow more vertical headroom. A flexible cable that minimally restricts movement is connected at one end to a commutator afixed to the cage top and at the other end to the animal's cranial implant. Each cage is located within separate, ventilated compartments of a stainless steel sleep-wake recording chamber. Food and water are available ad libitum and the ambient temperature is maintained at about 23±1° C. A 24-hr light-dark cycle (LD 12:12) using fluorescent light is maintained throughout the study. Relative humidity averages approximately 50%. Animals are undisturbed for at least 30 hrs before and after each treatment.
The vehicle (placebo, methylcellulose 15 centipoise 0.25% in water) or one of the test compound dose levels is administered orally at 1 mL/kg pseudo-randomly such that no rat receives the same treatment twice, and no rat receives more than two of the 8 treatments in any one study. Each rat is removed from its cage for about a minute to be weighed and treated. At least 6 days “washout” period precede and follow each treatment. […]

[1] = threshold efficacy dose, 4 parameter logistic regression, 6 hr. after treatment, rat PO

SMILES: Cc1ccc2c(c1)Oc1sc(C)cc1C(N1CCN(CC(C)(C)C(=O)O)CC1)=N2 [Example 2, 3-[4-(2,8-Dimethylthieno[2,3-b][1,5]benzoxazepin-4-yl)piperazin-1-yl]-2,2-dimethyl-propanoic acid dihydrochloride]
- apparent REM sleep inhibition, statistical significance (0.25 mg/kg and 0.025 mg/kg, rat): not statistically significant
- REM sleep inhibition against the threshold value (−10 min.) (3 mg/kg, rat): exceeded the threshold value
- cumulative NREM sleep time (in words) (3 mg/kg, rat): significantly increase
- cumulative total sleep time (in words) (3 mg/kg, rat): significantly increase
- inhibition of locomotor intensity (LMI) (in words) (3 mg/kg, rat): without significant
- rebound insomnia (in words) (3 mg/kg, rat): without significant rebound insomnia
- REM sleep inhibition (overall conclusion, in words) (rat sleep study): cannot be ruled out
- rebound insomnia or reduction in LMI within 10 times the most conservative efficacy dose (rat, efficacy dose 0.26 mg/kg): no undesired occurences of REM rebound insomnia, or reduction in LMI are observed
- Estimated efficacy dose, NREM accumulation = 30 min. [1]: 0.05 mg/kg
- Estimated efficacy dose, average sleep bout (1.5-fold increase) [1]: 0.21 mg/kg
- Estimated efficacy dose, longest sleep bout (1.75-fold increase) [1]: 0.26 mg/kg
- Estimated efficacy dose, total sleep accumulation = 25 min. [1]: 0.07 mg/kg
